From patent US20040023841A1, “Combinatorial method for rapid screening of drug delivery formulations” (priority 2003, published 2004)

Legend:
[1] = Loss of drug from donor hole of Teflon disc placed on stratum corneum; type: in vitro ADME; details: drug in PBS, 2 mm hole, human SC, 24 hours contact, liquid scintillation counting
Description: (§1) The following experiments were performed to assess the usefulness of a method, which determines the loss of a test substance from a formulation over time. Experiments were performed to assess whether this method can be used for estimation of skin permeability to drugs. For these studies, phosphate buffered saline was used as a model formulation. […] Ten holes were drilled into the disc and each hole was about 2 mm wide. The disc was then placed on the SC prepared from human skin. Solutions of nine different drugs in PBS were placed in various holes. The concentration of drugs in the solutions were measured at time zero. The drugs were allowed to remain in contact with the skin for 24 hours. Samples were taken from the holes at the end of 24 hours and then analyzed using a liquid scintillation counter. The amount of drug lost from the donor hole was calculated. Permeability measurements of the same drugs were performed using conventional methods that use macroscopic diffusion cells.

[2] = Permeability measured by traditional experiments (macroscopic diffusion cells); type: in vitro ADME
Description: as §1

[3] = Conductivity enhancement of skin, 10x10 High Throughput array; type: in vitro ADME, pig; details: 10x10 array, 0-2% (w/v) in PBS, up to 25 hrs, n=4
Description: This array is built as a pattern of 10×10 matrix. This corresponds to 100 test wells, each well 3 mm in diameter. The formulations to be tested are filled in the donor compartments. Each formulation is filled in 4 wells and each well can hold about 85 μL of the test formulation. Two 22 G 1½ needles are used as electrodes to measure current across the skin. One needle is stuck into the dermis and acts as the common electrode while the other needle is sequentially placed in each well to measure current. Current measurements are made across the skin periodically over a span of 25 hrs. […] The conductivity enhancement for a given formulation at time ‘t’ is then calculated as [formula] where It is the current across the skin at time ‘t’ and I0 is the current across the skin at time 0. […] The error bars correspond to the standard deviations. (n=4).

[4] = Transport enhancement of radiolabelled mannitol into skin, 10x10 High Throughput array; type: in vitro ADME, pig; details: 10x10 array, 0-2% (w/v) in PBS, 7 hrs
Description: Radiolabelled mannitol was added to all formulations prepared in PBS at a concentration of 10 μCi/mL. The donor compartments were filled with these formulations with each formulation filled in 4 wells. The skin was then incubated for 7 hrs. The solutions from the donor compartment were removed at the end of incubation period. The skin was then gently rinsed to free any mannitol that could be sticking to the surface of the skin. The skin was then cut and dissolved in 0.5 M Solvable, a tissue and gel solubilizer from Packard Chemicals, at 60° C. overnight. […] The transport enhancement at different test formulations is then calculated as [formula] where CF is the radiation count for a particular test formulation and CC is the radiation count for the control i.e. PBS alone without any enhancer.

[5] = Conductivity enhancement of skin, 5x5 High Throughput array; type: in vitro ADME, pig; details: 5x5 array, 0-2% (w/v) in PBS, up to 25 hrs
Excerpt: This array is built as a pattern of a 5×5 matrix. This corresponds to 25 test wells, each well 7.5 mm in diameter. It consists of two polycarbonate plates each 0.5 inches thick. The top plate (donor plate) has 25 through holes (wells), diameter 7.5 mm, drilled in it, each of which acts as an isolated donor chamber similar to the donor chamber in the Franz diffusion cells. The bottom plate (receiver plate) also has holes (wells) drilled in a similar pattern as the donor plate and simulates the receiver compartment of the diffusion cells. All wells are isolated from each other for all practical purposes and each well acts like an individual diffusion cell. The skin is placed between the donor and receiver plate and the plate assembly is clamped using four screws as shown in the figure.
Screening of the formulations is performed using pigskin. The wells in the receiver plate are filled with PBS. The skin is placed on the receiver plate with the stratum corneum (SC) facing the donor plate. The donor plate is then placed on the skin and the entire assembly is clamped tightly using four screws. […]
The formulations to be tested are filled in the donor compartments. […] The current, measured at 100 Hz and 143 mVpp, varied between 1 μA at time 0 to 25-30 μA at time 25 hrs.
The conductivity enhancements at time t″ is then calculated as [formula] […]

[6] = Transport enhancement of radiolabelled mannitol into skin, 5x5 High Throughput array; type: in vitro ADME, pig; details: 5x5 array, 0-2% (w/v) in PBS, 7 hrs
Description: Screening of the formulations is performed using pigskin. The wells in the receiver plate are filled with PBS. The skin is placed on the receiver plate with the stratum corneum (SC) facing the donor plate. The donor plate is then placed on the skin and the entire assembly is clamped tightly using four screws. A mild vacuum is then applied to remove any excess PBS that may be pushed in to the wells in the receiver plate. Radiolabelled mannitol was added to all formulations prepared in PBS at a concentration of 10 μCi/mL. The donor compartments were filled with these formulations each formulation was filled in 1 well. The skin was then incubated for 7 hrs. The solutions from the donor compartment were removed at the end of incubation period. The skin was then gently rinsed to free any mannitol that could be sticking to the surface of the skin. The skin was then cut and dissolved in 0.5 M Solvable, a tissue and gel solubilizer from Packard Chemicals at 60° C. overnight. […] The transport enhancement at different test formulations is then calculated as [formula] where CF is the radiation count for a particular test formulation and CC is the radiation count for the control i.e. PBS alone without any enhancer.

[7] = Conductivity enhancement of skin, Franz diffusion cells; type: in vitro ADME, pig; details: Franz diffusion cell, 0-2% in PBS, 24 hours
Description: A small stir bar and an Ag/AgCl disk electrode ([…] In-vivo Metrics) were added to the receiver chamber. In addition, the receiver chamber was filled with PBS. Pigskin was thawed and was mounted on the diffusion cell with the epidermis side facing up. The donor and the receiver compartments were clamped making sure there were no bubbles in the receiver chamber. Before each experiment, structural integrity of the skin was confirmed by measuring its conductivity. Skin samples with a resistivity less than 20 Kohm-cm^2 were assumed to be defective and not used. Skin conductivity was measured throughout the experiment to assess the effect of the formulation on skin structure. […] Each formulation was prepared in PBS. Current across the skin was measured over a period of 24 hours. The enhancement of skin conductivity was calculated as [formula] where It is the current across skin at time t, I0 being the current across skin at time 0.

[8] = Transport enhancement of radiolabeled mannitol into skin, Franz diffusion cells; type: in vitro ADME, pig; details: Franz diffusion cell, 0-2% (w/v) in PBS, 7 hrs
Description: The skin was incubated in the cells for 7 hrs. At the end of 7 hrs the skin was removed from the cell and dissolved in 0.5M Solvable, a gel and tissue solubilizer from Packard Chemicals, at 60° C. overnight. […] The enhancement of transdermal mannitol transport due to the formulations was calculated using the equation, E^T=CF/CC, where CF is the radiation count for a particular formulation and CC is the radiation count for the control which in this case is simply PBS with radiolabeled mannitol but no surfactant.

Row | Compound | % Drug Lost from the Hole [1] [%] | Papp [2] [×10⁻⁶ cm/s] | also measured
1 | C[C@]12CCC(=O)C=C1CC[C@@H]1[C@@H]2[C@@H](O)C[C@]2(C=O)[C@@H](C(=O)CO)CC[C@@H]12 [Aldosterone] | 9 | 0.00833 | 
2 | CCCCCCO [Hexanol] | 31 |  | 
3 | c1ccc2ccccc2c1 [Napthalene] | 47 |  | 
4 | CCCCCCCCCCCCCCCCCCO [Octadecanol] | 77 | 25 | 
5 | CCCCCCCCO [Octanol] | 47 | 19.4 | 
6 | CC(=O)[C@H]1CC[C@H]2[C@@H]3CCC4=CC(=O)CC[C@]4(C)[C@H]3CC[C@]12C [Progesterone] | 44 | 5.56 | 
7 | CCCCCCCCCCCCOS(=O)(=O)[O-].[Na+] [SLS, Sodium Lauryl Sulfate] |  |  | Conductivity enhancement (It/I0) [3]: increases with increasing SLS or TDAB concentration and reaches a maximum after which it starts decreasing; Transport enhancement (amount of mannitol transported, CF/CC) [4]: increases monotonously as a function of the surfactant concentration; Conductivity enhancement (It/I0) [5]: increases as a function of the SLS or TDAB concentration and reaches a maximum; Transport enhancement (amount of mannitol transported, CF/CC) [6]: increases monotonously as a function of the surfactant concentration; Conductivity enhancement (It/I0) [7]: increases as a function of the SLS or TDAB concentration and reaches a maximum; Transport enhancement (amount of mannitol transported, CF/CC) [8]: increases monotonously as a function of the surfactant concentration
8 | C[C@]12CC[C@H]3[C@@H](CCC4=CC(=O)CC[C@@]43C)[C@@H]1CC[C@@H]2O [Testosterone] | 24 |  | 
